According to PMC4186430, “Modeling of age-dependent amyloid accumulation and γ-secretase inhibition of soluble and insoluble Aβ in a transgenic mouse model of amyloid deposition” (Pharmacology Research & Perspectives, 2013):
Marks after values point to notes of the source that are not given here.

How the values were obtained:
soluble Aβ40 = assay: Soluble (DEA) brain Aβ40 levels in Tg2576 mice after MRK-560, ELISA; type: in vivo, Tg2576 transgenic mice
Source text: (§1) C57BL/6 female mice (Harlan Laboratories, Horst, The Netherlands), Tg2576 transgenic female mice (Taconics, Georgetown, NY), overexpressing human APP with the Swedish mutation (Hsiao et al. [1996]), and Tg2576 wild-type littermates were used in the experiments. The C57BL/6 and wild-type littermates were only used for pharmacokinetic PK sampling and analysis. The housing environment was humidity- and temperature-controlled with a constant 12-h light/dark cycle. The animals were kept in conventional housing (5–10 mice per cage) and had access to standard rodent chow and tap water ad libitum. The transgenic mice were aged at the local AstraZeneca (AZ) animal facilities. On the day of study, the mice were weighed. MRK-560 (synthesized in-house; AZ) or vehicle was administered by oral gavage. Three types of vehicles were used: (1) 1% MCC/NaCMC (Microcrystalline Cellulose/Sodiumcarboxymethyl Cellulose) +0.6% lipoid S100, (2) 20% HPβCD in 0.1 mol/L Meglumine, and (3) 40% HPβCD in 0.3 mol/L Meglumine. Observations of the animals’ health were made throughout all the experiments. Data from 23 MRK-560 studies were used in this analysis and details of all studies can be found in Table 1. For the AP analysis, data from vehicle and untreated Tg2576 mice from 48 additional (i.e., non-MRK-560) in-house studies were used. The additional dataset consisted of Aβ levels measured in Tg2576 mice of various ages, between 3.5 and 26 months at termination. Details of those data can be found in Appelkvist et al. ([2011]). In total, data from 71 preclinical studies were used.
After blood sampling, mice were sacrificed by decapitation followed by brain samples collection. Cerebellum and olfactory bulbs were removed and the forebrain was divided into left and right hemispheres, weighed, and snap frozen.
Left hemisphere of the cerebrum was sequentially extracted by diethylamine (DEA) followed by formic acid (FA) to obtain soluble and insoluble fractions of Aβ species, respectively. In short, brain tissue was sonicated in 1:18 (w/v) 0.2% DEA and 50 mmol/L NaCl, pH 11.6. After centrifugation (133,000g, 4°C, 1 h), the supernatant (soluble Aβ) was recovered, neutralized to a pH of 8.0 using 2 mol/L Tris-HCl, and immediately frozen to -70°C. The remaining pellet was sonicated in 1:18 (w/v) 70% FA. Homogenates were centrifuged at +4°C for 1 h at 133,000g. Recovered supernatants (insoluble Aβ) were neutralized to pH 7.5 with 1 mol/L Tris at 1:20 (w/v) dilutions, frozen on dry ice, and stored at −70°C until analysis.
Amyloid beta (Aβ40) and Aβ42 concentrations were measured in plasma, in soluble (DEA), and insoluble (FA) brain fractions using commercial sandwich ELISA kits (KHB3482 from Invitrogen, Carlsbad, CA, and RUO80177 from Innogenetics, Gent, Belgium). To compensate for matrix effects, plasma or brain homogenates from non-transgenic mice were used for preparation of standard curves. The lower and higher limits of quantification (LLOQ and HLOQ) were determined for each immunoassay plate based on the lowest and highest standard point, respectively. The coefficient of variation was less than20% and the accuracy was between 80% and 120%.
Statistical comparisons of the vehicle and MRK-560 treatment data were made by unpaired t-tests. The level of significance was set at P < 0.05. All analyses were performed using GraphPad Prism (GraphPad Prism Software Inc., San Diego, CA) and results were reported as mean ± SEM.

[1] = Population pharmacokinetic modeling of MRK-560 plasma and brain exposure in mice; type: in vivo, C57BL/6, Tg2576 and Tg2576 wild-type littermate mice
Source text: as §1
Blood samples were collected by tail vein puncture in PK studies and occasionally in efficacy studies. At termination blood was withdrawn from anesthetized mice by heart puncture into prechilled microtainer Ethylenediaminetetraacetic acid tubes. Blood samples were immediately put on ice and centrifuged for 10 min at ∼3000g at +4°C within 20 min from sampling. Plasma was transferred to prechilled polypropylene tubes. The tubes were immediately frozen on dry ice and stored at −70°C until analysis.
Plasma samples and standards were precipitated with acetonitrile containing internal standard. After centrifugation, supernatant was transferred to a new 96-well plate, diluted with mobile phase, and injected on the LC/MS/MS system (Waters Corporation, Sollentuna, Sweden) (Bueters et al. [2011]). For the determination of the compound concentration in the brain, frozen mouse brains were weighed, and an ice-cold Ringer solution (two volumes per weight) was added. The brains were sonicated using a Multi-element probe SONICS VCX 500 (Newtown, CT). To 50 μL homogenized tissue 150 μL ice-cold acetonitrile containing an internal standard was added in a precipitation plate (96-well PP-plate; Waters, Milford, MA). After mixing and centrifugation (4°C, 4000 rpm, 20 min), supernatant was transferred to an analysis plate (PP-plate, Waters) and analyzed by LC/MS/MS (Borgegård et al. [2011]). As the brains were not perfused before exposure analysis, a volume of 1.3% of blood in the brain and the concentration of compound in plasma were used to calculate the brain concentration (Richard [1968]; Park and Sinko [2005]).
In the pharmacokinetic analysis, one- and two-compartmental first-order models were evaluated to fit the MRK-560 concentration–time profiles in plasma and brain. Separate absorption rate constants were estimated for oral and subcutaneous route of administration. A dose-dependent bioavailability was assessed and was modeled using the function shown in equation (1): [drawing 1] (1)
An instantaneous distribution of the unbound compound between plasma and brain was assumed. The brain exposure was modeled using equation (2): [drawing 2] (2) where CP was the plasma concentration, θ4 was the brain:plasma concentration ratio, and fu,pl and fu,br were the plasma and brain unbound fraction, respectively. […]

Plasma unbound fraction = type: in vitro ADME; details: observed, read-out: fu,pl (plasma unbound fraction)

Q: With `O=S(=O)(NC1CCC(c2cc(F)ccc2F)(S(=O)(=O)c2ccc(Cl)cc2)CC1)C(F)(F)F` (stereo not drawn) [MRK-560, N-[cis-4-[(4-chlorophenyl)-sulfonyl]-4-(2,5-difluorophenyl)cyclohexyl]-1,1,1-trifluoromethanesulfonamide] as the molecule, how does the “decrease from baseline in soluble Aβ40 levels” value (soluble Aβ40; 70 μmol/kg single dose, young mice, 6 h after dosing) read?
A: 74%

Q: And the “Effect on soluble Aβ40” value (soluble Aβ40; study 7, Tg2576, 20 weeks at start, 70 μmol/kg p.o., 4 days, 3 h since last dosing, P < 0.05)?
A: −72 ^* %

Q: What about the “Effect on soluble Aβ40” value (soluble Aβ40; study 8, Tg2576, 24 weeks at start, 0.5 μmol/kg p.o., 30 days, 3 h since last dosing) of the same molecule?
A: −6%

Q: And the “Effect on soluble Aβ40” value (soluble Aβ40; study 8, Tg2576, 24 weeks at start, 6 μmol/kg p.o., 30 days, 3 h since last dosing, P < 0.05)?
A: −45.6 ^* %

Q: And the “Effect on soluble Aβ40” value (soluble Aβ40; study 9, Tg2576, 24 weeks at start, 0.5 μmol/kg p.o., 94 days, 3 h since last dosing)?
A: −17%

Q: What about the “Effect on soluble Aβ40” value (soluble Aβ40; study 9, Tg2576, 24 weeks at start, 6 μmol/kg p.o., 94 days, 3 h since last dosing) of the same molecule?
A: −28%

Q: What about the “Effect on soluble Aβ40” value (soluble Aβ40; study 10, Tg2576, 24 weeks at start, 1 μmol/kg p.o., 29 days, 3 h since last dosing, P < 0.05) of the same molecule?
A: −26 ^* %

Q: And the “Effect on soluble Aβ40” value (soluble Aβ40; study 10, Tg2576, 24 weeks at start, 3 μmol/kg p.o., 29 days, 3 h since last dosing, P < 0.05)?
A: −41 ^* %

Q: What about the “Effect on soluble Aβ40” value (soluble Aβ40; study 10, Tg2576, 24 weeks at start, 6 μmol/kg p.o., 29 days, 3 h since last dosing, P < 0.05) of the same molecule?
A: −47 ^* %

Q: And the “Effect on soluble Aβ40” value (soluble Aβ40; study 11, Tg2576, 24 weeks at start, 6 μmol/kg p.o., 30 days, 3 h since last dosing, P < 0.05)?
A: −40 ^* %

Q: And the “Effect on soluble Aβ40” value (soluble Aβ40; study 12, Tg2576, 25 weeks at start, 70 μmol/kg p.o., 1 day, 3 h since last dosing, P < 0.05)?
A: −76 ^* %

Q: And the “Effect on soluble Aβ40” value (soluble Aβ40; study 13, Tg2576, 25 weeks at start, 1 μmol/kg p.o., 4 days, 3 h since last dosing, P < 0.05)?
A: −41 ^* %

Q: And the “Effect on soluble Aβ40” value (soluble Aβ40; study 13, Tg2576, 25 weeks at start, 3 μmol/kg p.o., 4 days, 3 h since last dosing, P < 0.05)?
A: −56 ^* %

Q: And the “Effect on soluble Aβ40” value (soluble Aβ40; study 13, Tg2576, 25 weeks at start, 7.5 μmol/kg p.o., 4 days, 3 h since last dosing, P < 0.05)?
A: −69 ^* %

Q: And the “Effect on soluble Aβ40” value (soluble Aβ40; study 14, Tg2576, 25 weeks at start, 70 μmol/kg p.o., 1 day, samples 3, 6, 24, 48, 120 h (text: 74% at 6 h), P < 0.05)?
A: −74 ^* %

Q: What about the “Effect on soluble Aβ40” value (soluble Aβ40; study 15, Tg2576, 36 weeks at start, 6 μmol/kg p.o., vehicle 3, 8 days, 3 h since last dosing, P < 0.05) of the same molecule?
A: −50 ^* %

Q: And the “Effect on soluble Aβ40” value (soluble Aβ40; study 16, Tg2576, 60 weeks at start, 6 μmol/kg p.o., 4 days, 3 h since last dosing)?
A: −17%

Q: What about the “Effect on soluble Aβ40” value (soluble Aβ40; study 17, Tg2576, 68 weeks at start, 6 μmol/kg p.o., 4 days, 3 h since last dosing) of the same molecule?
A: −6.3%

Q: And the “Effect on soluble Aβ40” value (soluble Aβ40; study 18, Tg2576, 81–89 weeks at start, 70 μmol/kg p.o., 1 day, samples 6, 24, 48, 96 h, time of this value not given)?
A: 8%

Q: What about the “Effect on soluble Aβ40” value (soluble Aβ40; study 19, Tg2576, 32 weeks at start, 30 μmol/kg p.o., 4 days, 4.5 h since last dosing, P < 0.05) of the same molecule?
A: −55 ^* %

Q: What about the “Effect on soluble Aβ40” value (soluble Aβ40; study 20, Tg2576, 32 weeks at start, 30 μmol/kg p.o., 21 days, 4.5 h since last dosing, P < 0.05) of the same molecule?
A: −70 ^* %

Q: And the “Effect on soluble Aβ40” value (soluble Aβ40; study 21, Tg2576, 36 weeks at start, 6 μmol/kg p.o., vehicle 3, 8 days, 3 h since last dosing, P < 0.05)?
A: −63 ^* %

Q: What about the “Effect on soluble Aβ40” value (soluble Aβ40; study 22, Tg2576, 24–28 weeks at start, 30 μmol/kg p.o., 45 days, 4.5 h since last dosing, P < 0.05) of the same molecule?
A: −57 ^* %

Q: And the “Effect on soluble Aβ40” value (soluble Aβ40; study 23, Tg2576, 37–40 weeks at start, 30 μmol/kg p.o., 28 days, 4.5 h since last dosing, P < 0.05)?
A: −56 ^* %

Q: What about the “Brain:plasma ratio” value ([1]; estimated total brain:plasma ratio, constant over 0.01-15 μmol/L) of the same molecule?
A: 0.31

Q: And the Kp ([1]; female, C57BL/6, Tg2576, Tg2576 wild-type littermates, mouse, brain, estimated total brain:plasma ratio, constant over 0.01-15 μmol/L)?
A: 0.3

Q: And the clearance ([1]; female, C57BL/6, Tg2576, Tg2576 wild-type littermates, mouse, plasma, two-compartmental model)?
A: 2 mL/min/kg

Q: And the “differences in pharmacokinetics among C57BL/6, Tg2576 and Tg2576 wild-type littermates” value ([1]; mouse, in vivo)?
A: No differences

Q: And the Q ([1]; two-compartmental model)?
A: 7.6 L/h/kg

Q: And the V2 ([1]; two-compartmental model)?
A: 0.28 L/kg

Q: What about the V3 ([1]; two-compartmental model) of the same molecule?
A: 2.9 L/kg

Q: What about the “KA (oral)” value ([1]; two-compartmental model, absorption rate constant, oral) of the same molecule?
A: 0.41 h⁻¹

Q: What about the “KA (s.c.)” value ([1]; two-compartmental model, absorption rate constant, s.c.) of the same molecule?
A: 0.81 h⁻¹

Q: What about the “plasma exposure with vehicles 2 and 3 compared to vehicle 1” value ([1]; vehicles 2, 3 = HPβCD/Meglumine, vehicle 1 = 1% MCC/NaCMC+0.6% lipoid S100) of the same molecule?
A: fourfold higher

Q: What about the fraction unbound (Plasma unbound fraction) of the same molecule?
A: 0.004
